Values belong to the compound of their own block, whether it stands above or below them.
Key:
[1] = test system: lambs with acute pulmonary hypertension (U-46619); details: cited from earlier work; for effect on mean arterial pressure / pulmonary vasodilation / transpulmonary cGMP release / systemic arterial oxygenation: awake lambs; for effect on mean arterial pressure / pulmonary vasodilation / transpulmonary cGMP release: U-46619 infusion
obese mice = details: cited from earlier work
NO-deficient rats = details: cited from earlier work
[2] = target: T1, soluble guanylate cyclase (sGC) endogenously expressed in HEK293 cells (Homo sapiens, UniProt Q02108+Q02153); assay: sGC-HEK-cGMP assay with LC/MS detection (whole cell); type: cell-based; details: 10 μM DETA-NONOate, 20 min, concentration eliciting 50% of high control response (30 μM Compound Y), read-out: sGC_HEK_LC MS EC50 Abs
T1 construct: endogenously expressing soluble guanylate cyclase (sGC); endogenous in cells; host or cells: HEK293
T1 sequence (Q02153 1-619): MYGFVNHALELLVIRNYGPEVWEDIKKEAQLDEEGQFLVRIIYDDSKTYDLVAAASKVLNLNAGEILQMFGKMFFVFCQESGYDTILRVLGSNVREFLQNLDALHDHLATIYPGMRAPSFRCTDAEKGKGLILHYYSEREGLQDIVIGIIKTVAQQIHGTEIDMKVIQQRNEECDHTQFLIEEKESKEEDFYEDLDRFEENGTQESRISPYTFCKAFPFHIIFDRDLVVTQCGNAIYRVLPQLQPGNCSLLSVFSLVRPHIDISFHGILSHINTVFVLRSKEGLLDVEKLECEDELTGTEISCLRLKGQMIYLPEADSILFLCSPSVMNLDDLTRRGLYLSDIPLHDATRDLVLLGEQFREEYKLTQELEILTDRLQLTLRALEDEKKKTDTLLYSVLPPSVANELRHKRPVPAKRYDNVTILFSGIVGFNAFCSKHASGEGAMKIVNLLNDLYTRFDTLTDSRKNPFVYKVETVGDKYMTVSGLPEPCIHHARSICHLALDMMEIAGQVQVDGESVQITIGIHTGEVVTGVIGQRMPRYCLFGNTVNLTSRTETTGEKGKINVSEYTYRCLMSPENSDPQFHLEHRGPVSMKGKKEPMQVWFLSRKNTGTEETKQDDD
T1 sequence (Q02108 1-690): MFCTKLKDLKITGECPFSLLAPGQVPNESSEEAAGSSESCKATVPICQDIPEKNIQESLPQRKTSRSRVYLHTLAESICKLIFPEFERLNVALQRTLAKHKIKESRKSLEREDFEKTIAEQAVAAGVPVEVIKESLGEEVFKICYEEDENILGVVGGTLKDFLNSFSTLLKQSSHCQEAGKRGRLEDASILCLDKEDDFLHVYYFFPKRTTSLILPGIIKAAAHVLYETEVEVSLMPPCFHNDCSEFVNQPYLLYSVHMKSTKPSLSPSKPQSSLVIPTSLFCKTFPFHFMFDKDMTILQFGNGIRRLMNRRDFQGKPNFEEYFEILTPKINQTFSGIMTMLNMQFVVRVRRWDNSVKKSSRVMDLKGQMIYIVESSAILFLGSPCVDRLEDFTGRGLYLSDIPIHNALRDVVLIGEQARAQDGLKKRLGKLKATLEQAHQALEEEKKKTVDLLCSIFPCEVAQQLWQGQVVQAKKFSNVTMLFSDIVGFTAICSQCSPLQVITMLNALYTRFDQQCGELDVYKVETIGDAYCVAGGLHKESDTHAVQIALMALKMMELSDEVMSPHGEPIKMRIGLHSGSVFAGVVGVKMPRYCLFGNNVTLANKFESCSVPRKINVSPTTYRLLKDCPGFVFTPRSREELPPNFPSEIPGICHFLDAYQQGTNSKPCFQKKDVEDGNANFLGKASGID
Protocol: Example 2: Biological Activity Measurement by the sGC-HEK-cGMP Assay, with LC/MS Detection
Human embryonic kidney cells (HEK293), endogenously expressing soluble guanylate cyclase (sGC), were used to evaluate the activity of test compounds. Compounds stimulating the sGC enzyme should cause an increase in the intracellular concentration of cGMP. HEK 293 cells were seeded in Dulbecco's Modification of Eagle's Medium supplemented with fetal bovine serum (10% final) and penicillin (100 U/mL)/streptomycin (100 μg/mL) in a 50 μL volume at a density of 1.5×10^4 cells/well in a poly-D-lysine coated 384 well flat bottom plate. Cells were incubated overnight at 37° C. in a humidified chamber with 5% CO2. Medium was aspirated and cells were washed with 1× Hank's Buffered Saline Salt Solution (50 μL). Cells were then incubated for 15 minutes at 37° C. with 50 μL of a 0.5 mM 3-isobutyl-1-methylxanthine (IBMX) solution. Test article and Diethylenetriamine NONOate (DETA-NONOate) solutions (x […] concentration for test article solution and 10 μM concentration for DETA-NONOate solution; wherein x is one of the following concentrations);
were then added to the assay mixture and the resulting mixture incubated at 37° C. for 20 minutes. After the 20 minute incubation, the assay mixture was aspirated and 10% acetic acid containing 150 ng/mL+3-cGMP (internal standard for LCMS) (50 μL) was added to the cells. The plate was incubated at 4° C. for 30 minutes in the acetic acid solution to stop the reaction and lyse the cells. The plates were then centrifuged at 1,000 g for 3 minutes at 4° C. and the supernatant transferred to a clean reaction plate for LCMS analysis.
cGMP concentrations were determined from each sample using the LCMS conditions below (Table 2) and calculated standard curve. The standard curve was prepared in 10% acetic acid with 150 ng/mL+3cGMP (isotopically labelled cGMP with a weight 3 units higher than wild type) with the following final concentrations of cGMP in ng/mL: 1, 5, 10, 50, 100, 250, 500, 1000, 2000.
Data were normalized to a high control using the following equation: 100*(Sample−Low Control)/(High Control−Low Control), where the low control is the average of 16 samples treated with 1% DMSO, and the high control is the average of 16 samples treated with 30 μM of Compound Y depicted below. Data were fit using a 4-parameter fit (log(agonist) vs. response variable slope) using GraphPad Prism Software v.5. n=2 for all compounds. The Absolute EC50 was interpolated from the curve fit and is defined as the concentration at which a given compound elicits 50% of the high control response. Compounds failing to elicit a minimum response of 50% are reported as >30 μM. For compounds run in duplicate or n higher than 2, the result herein given is the geometric mean of the several results obtained.

[3] = test system: Guinea pig tracheal smooth muscle (GPTSM); details: guinea pig tracheal strips, sub-maximal EFS; 95% Cl 0.78-0.94; read-out: IC50, inhibition of baseline EFS-induced contraction; cited from earlier work
patients with BMD = details: single oral dose of 20 mg, double-blind randomized placebo-controlled crossover trial; cited from earlier work

Structure (SMILES): Nc1nc(-c2nn(Cc3ccccc3F)c3ncccc23)ncc1C1CC1 [BAY 41-2272]
effect on mean arterial pressure ([1]; inhaled microparticles): without significant effect on mean arterial pressure
pulmonary vasodilation ([1]; inhaled microparticles): dose dependent pulmonary vasodilation
transpulmonary cGMP release ([1]; inhaled microparticles): increased transpulmonary cGMP release

Structure (SMILES): Nc1nc(-c2nn(Cc3ccccc3F)c3ncccc23)nc(N)c1N1CCOCC1 [BAY 41-8543]
magnitude and duration of pulmonary vasodilation induced by iNO ([1]; after inhaling microparticles): augmented
effect on mean arterial pressure ([1]; inhaled microparticles): without significant effect on mean arterial pressure
pulmonary vasodilation ([1]; inhaled microparticles): dose dependent pulmonary vasodilation
transpulmonary cGMP release ([1]; inhaled microparticles): increased transpulmonary cGMP release
systemic arterial oxygenation ([1]; inhaled microparticles): increased systemic arterial oxygenation

Structure (SMILES): O=C(O)CCCCN(CCc1ccccc1OCc1ccc(CCc2ccccc2)cc1)Cc1ccc(C(=O)O)cc1 [BAY 58-2667]
pulmonary vasodilation and transpulmonary cGMP release after treatment with ODQ ([1]; inhaled microparticles, after intravenous ODQ): greatly enhanced
effect on mean arterial pressure ([1]; inhaled microparticles): without significant effect on mean arterial pressure
pulmonary vasodilation ([1]; inhaled microparticles): dose dependent pulmonary vasodilation
transpulmonary cGMP release ([1]; inhaled microparticles): increased transpulmonary cGMP release
systemic arterial oxygenation ([1]; inhaled microparticles): increased systemic arterial oxygenation

Structure (SMILES): O=C(O)CCCCN(CCc1cc(F)ccc1OCc1ccc(-c2ccc(C(F)(F)F)cc2)cc1)Cc1ccc(C(=O)O)cc1 [BAY 60-2770]
effect on overactive bladder (obese mice): ameliorates overactive bladder in obese mice

Structure (SMILES): Nc1nc(-c2nn(Cc3ccccc3F)c3ncccc23)ncc1C1CC1 [BAY-2272]
effect on bladder dysfunction (NO-deficient rats): protective effects

Structure (SMILES): CCOC(=O)C1(C)C(=O)Nc2nc(-c3cc(OC(F)F)n(Cc4ccc(F)cc4F)n3)nc(N)c21 (stereo not shown) [Compound I-55]
EC50 [2]: 101 to 1000 nM

Structure (SMILES): CCOC(=O)C1(C)C(=O)Nc2nc(-c3cc(OC(F)F)n(CCC(F)(F)C(F)(F)F)n3)nc(N)c21 (stereo not shown) [Compound I-57]
EC50 [2]: ≥ 1000 nM

Structure (SMILES): Fc1cnc(-c2cc(OC(F)F)n(Cc3cccc(F)c3F)n2)nc1 [Compound I-59]
EC50 [2]: ≥ 1000 nM

Structure (SMILES): CC(C)[N+]1(C)[C@@H]2CC[C@H]1C[C@@H](OC(=O)C(CO)c1ccccc1)C2 (stereo partly shown) [Ipratropium bromide]
IC50 [3]: 0.86 nM

Structure (SMILES): CN1CC(=O)N2[C@H](c3ccc4c(c3)OCO4)c3[nH]c4ccccc4c3C[C@@H]2C1=O [tadalafil]
normal blood flow regulation (patients with BMD): restored in eight of nine patients

The remaining lines, values ahead:

EC50 [2]: 101 to 1000 nM
Structure (SMILES): COc1cc(-c2ncc(F)c(NC[C@@H](C(=O)O)C(C)C)n2)nn1Cc1ccccc1F [Compound I-60]

EC50 [2]: ≥ 1000 nM
Structure (SMILES): COc1cc(-c2ncc(F)c(N3CCC(O)(CO)CC3)n2)nn1Cc1ccccc1F [Compound I-61]

EC50 [2]: ≥ 1000 nM
Structure (SMILES): COc1cc(-c2ncc(F)c(N3CCNC(=O)C3)n2)nn1Cc1ccccc1F [Compound I-62]

EC50 [2]: ≥ 1000 nM
Structure (SMILES): COc1cc(-c2ncc(F)c(NCC(O)CO)n2)nn1Cc1ccccc1F (stereo not shown) [Compound I-64]

EC50 [2]: ≥ 1000 nM
Structure (SMILES): COc1cc(-c2ncc(F)c(NC(c3nnn[nH]3)C(C)C)n2)nn1Cc1ccccc1F (stereo not shown) [Compound I-65]

EC50 [2]: 101 to 1000 nM
Structure (SMILES): COc1cc(-c2ncc(F)c(N(C)CC3(C(=O)O)CCCC3)n2)nn1Cc1ccccc1F [Compound I-66]

EC50 [2]: 101 to 1000 nM
Structure (SMILES): COc1cc(-c2ncc(F)c(N3CCC(C(=O)O)(C(C)C)CC3)n2)nn1Cc1ccccc1F [Compound I-67]

EC50 [2]: 101 to 1000 nM
Structure (SMILES): COc1cc(-c2ncc(F)c(N3CCC(C)(C(=O)O)CC3)n2)nn1Cc1ccccc1F [Compound I-68]

EC50 [2]: ≥ 1000 nM
Structure (SMILES): COc1cc(-c2ncc(F)c(NCCS(N)(=O)=O)n2)nn1Cc1ccccc1F [Compound I-69]

EC50 [2]: 101 to 1000 nM
Structure (SMILES): COc1cc(-c2ncc(F)c(N3CCC[C@H](C)[C@@H]3C(=O)O)n2)nn1Cc1ccccc1F [Compound I-70]

EC50 [2]: 101 to 1000 nM
Structure (SMILES): CC1(C(N)=O)C(=O)Nc2nc(-c3cc(OC(F)F)n(Cc4ccccc4F)n3)nc(N)c21 (stereo not shown) [Compound I-71]
